Consider 38 compounds from patent US8563580B2, “Flavivirus inhibitors and methods for their use” (Georgetown University, priority 2008, dated 2013).

One experiment concerns WNV protease. Kind of experiment: High Throughput Screen (HTS) protease assay. The format is biochemical, West Nile virus (EG101 strain). The settings on record: 100 nl of 5 mg/ml compound in DMSO per 30.1 μl well; substrate Boc-Gly-Lys-Arg-AMC 50 μM; DMSO controls = 100% activity. On the procedure: Procedures for expression and purification of WNV (EG101 strain) were similar to those described elsewhere by Mueller et al., Int. J. Biochem. Cell. Biol., 39: 606-14 (2007). Briefly, E. coli Top10 F′ cells (Invitrogen, Carlsbad, Calif.) were transformed with the protease expression plasmid. Cells were grown at 37° C. until the OD600 was ˜0.5. Cells were then induced with isopropyl-1-thio-β-D-galactopyranoside (American Bioanalytical, Natick, Mass.) (0.5 mM), and incubated for 4 h at 37° C. Cells were harvested by centrifugation (5000×g) for 15 min at 4° C., washed once with a buffer containing 50 mM Tris-HCl, pH 7.5, and 200 mM NaCl, centrifuged at 5000×g for 15 min at 4° C., and stored at -80° C. until used.
Proteases were purified by suspending bacterial pellets in 50 mM Hepes, pH 7.0, 500 mM NaCl, (buffer A) with 0.05 mg/ml lysozyme. Cells were incubated for 30 min on ice after addition of 10% stock solution of Triton X-100 (final concentration of 0.5%). Cells were disrupted by sonication for 2 min and the soluble fraction was collected after centrifugation (15,000×g) for 30 min at 4° C. The soluble fraction was incubated for 1 h at 4° C. with Talon resin (BD Bioscience, San Jose, Calif.) which was pre-equilibrated in buffer A. The affinity resin was centrifuged at (400×g) for 10 min at 4° C., washed three times with buffer A, and packed into a column. Washing of the column was continued with the buffer A containing 10 mM imidazole, followed by elution of the protease with buffer A containing 150 mM imidazole. The protease was concentrated and further purified by Sephadex G-75 gel filtration chromatography. The purified protease fractions were pooled and dialyzed against a buffer containing 50 mM Tris-HCl pH 7.5 and 300 mM NaCl (4×1 L). Aliquots (100 μl) were frozen at −80° C.
The protease assay (100 μl) described by Mueller et al., Int. J. Biochem. Cell. Biol. 39: 606-14 (2007) was adapted for a 384-well plate format (30.1 μl). Microtiter plates were loaded sequentially with 14 μl of the reaction buffer containing 200 mM Tris-HCl, pH 9.5, and 30% glycerol (TG buffer) using an automated Wellmate (Matrix, Hudson, N.H.) and 6 μl of WNV protease (0.05 μM) (as prepared above) in TG buffer containing 15 mM NaCl (3 mM final concentration). Plates were then centrifuged at 1000×g for 3 min at room temperature to mix samples and pool liquids at the bottom of the wells. Inhibitor compounds (100 nl of 5 mg/ml in dimethyl sulfoxide; DMSO) were added to each well in duplicate by a pin-transfer mechanism of a robotic delivery system. The final inhibitor concentrations in the assays varied due to different molecular weights of the compounds from the libraries that were screened. Plates were incubated at room temperature to allow for formation of protease/inhibitor complexes. The fluorogenic substrate, t-butyl-oxycarbonyl(Boc)-Gly-Lys-Arg-7-amino-4-methyl coumarin (AMC) (10 μl in TG buffer; 50 μM final concentration in the reaction mixture), was added using the Wellmate, and the plates were centrifuged for 3 min at 1000×g and incubated at room temperature for 15 min. Fluorescence was measured at excitation and emission wavelengths of 385 nm and 465 nm, respectively, on a Perkin-Elmer (Waltham, Mass.) spectrofluorometer. To validate the assay conditions, aprotinin (bovine pancreatic trypsin inhibitor, BPTI) was used as a positive control. Assay mixtures containing DMSO were used as negative controls. The average of fluorescence values in duplicate wells for a given compound was used to determine the percent activity by taking the values obtained with DMSO controls as 100%. Compounds 1-11, 18-32, and 37-101 above were identified. […] Compounds 12-17 are compounds related to those identified in the HTS screen that also show significant WNV protease inhibition, i.e., >95%.

The test system of experiment [1] is Dengue 2 replicon expressing BHK cells. Kind of experiment: Replicon inhibition assay (Renilla luciferase), Dengue 2 replicon expressing BHK cells. In kind it is cell-based, Dengue virus (DENV2). The settings on record: for EC50: Dengue virus. The method, then: (§1) Baby Hamster Kidney (BHK) and African green monkey kidney epithelial cells (Vero) were cultured in Dulbecco's Modified Eagle Medium (DMEM) (Cellgro®; Mediatech, Inc., Manassas, Va.) supplemented with 10% fetal bovine serum, MEM nonessential amino acid (Cellgro®) (5 ml/liter), and Penicillin-Streptomycin (2.5 ml/liter). Dengue 2 replicon expressing BHK cells and WNV replicon expressing Vero cells were cultured in DMEM as described above containing additionally Geneticin or G418 (Fisher Scientific®, Pittsburgh, Pa.) to maintain the selective pressure of the replicon expressing cells.
(§2) Dengue 2 replicon expressing BHK cells and WNV replicon expressing Vero cells were plated 100 μl into a black 96 well plate (Greiner Bio-One; Monroe, N.C.) with 10^5 cells/ml concentrations. After 6 hours of incubation, 1 μl of each compound diluted in DMSO to 2.5 mM was added into each well to obtain a 25 μM as the final concentration. Cells were incubated at 37° C. in a humidified CO2 (5%) chamber for 24 hours. The media was then removed and the cells are washed with PBS before adding 20 μl of lysis buffer to each well. A Renilla luciferase assay was performed with the addition of 50 μl substrate (Promega Corporation; Madison, Wis.) with a 2 second delay and a 10 second measurement in a Centro LB 960 plate luminescence plate reader (Berthold Technologies; Oak Ridge, Tenn.). The data was analyzed and plotted with GraphPad Prism 5 (GraphPad Software, Inc.; La Jolla, Calif.).
Renilla luciferase activity was measured as described above 24 hours after the addition of the compounds.
(A replicon is a self-replicating genome or part of one, used to study replication in cells.)

For experiment [2], the system named is WNV replicon expressing Vero cells. As to the kind of experiment: Replicon inhibition assay (Renilla luciferase), WNV replicon expressing Vero cells. The format is cell-based, West Nile virus (WNV). The method, then:
as §1, §2
Specifically, the cells were prepared as above and the concentration of the compounds were varied (see Table 2). Renilla luciferase activity was measured as described above 24 hours after the addition of the compounds.

Usually EC50 stands for the midpoint of the concentration-response curve. A lower EC50 goes with higher potency in that assay. Regarding `Oc1c(C(Nc2nc3ccccc3s2)c2ccccc2)ccc2cccnc12` (centres unmarked) [Compound 13], the “% Inhibition (reduction in protease activity)” value with WNV protease is more than 95%. The compound also registered an EC50 in experiment [1] (DENV2, BHK) of approximately 7.5 µM. As to `Oc1ccccc1C(Nc1nc2ccccc2s1)c1ccc2cccnc2c1O` (centres unmarked) [Compound 16], the “% Inhibition (reduction in protease activity)” value with WNV protease is reported as more than 95%. The EC50 in experiment [1] (DENV2, BHK) was approximately 4.5 µM. Turning to `Oc1c(C(Nc2nccs2)c2cccc(OCc3ccccc3)c2)ccc2cccnc12` (centres unmarked) [Compound 17], the “% Inhibition (reduction in protease activity)” value in the experiment on WNV protease is listed as more than 95%. Further, in experiment [1] (DENV2, BHK), the EC50 was approximately 8.3 µM. For `Oc1c(CN2CCOCC2)ccc2cccnc12` [Compound 33], the “WNV replicon inhibition (FIG. 1)” value in experiment [2] (25 μM final concentration, 24 hours, Vero cells) is “inhibitory”. The EC50 in experiment [2] (West Nile virus, Vero, 24 h) turned out to be 7.96 µM; in experiment [1] (BHK, 24 h), 10.6 µM. Besides, the “DENV2 BHK replicon inhibition (FIG. 2)” value in experiment [1] (25 μM final concentration, 24 hours, BHK cells) is “inhibitory”. With `CCN(CC)S(=O)(=O)c1ccc2oc(C(=O)Nc3cccc(OC)c3)c(C)c2c1` [Compound 64], the “% Inhibition (reduction in protease activity)” value in the experiment with WNV protease was 65%.

Take `CC(C)(C)C1CCC(C(=O)OCC(=O)Nc2ccc(C(N)=O)cc2)CC1` (centres unmarked) [Compound 65]: in the experiment with WNV protease, the “% Inhibition (reduction in protease activity)” value was determined as 63%. On to `CC(NC(=O)Cc1cccs1)C(c1cccs1)N1CCN(c2ccccc2)CC1` (centres unmarked) [Compound 66], for which, in the experiment with WNV protease, the “% Inhibition (reduction in protease activity)” value is 62%. For `COC(=O)c1cc2oc3ccccc3c2n1CC(=O)NCc1ccco1` [Compound 67], the “% Inhibition (reduction in protease activity)” value in the experiment on WNV protease was 61%. Turning to `Cc1ccc(NC(=O)C23C(=O)Oc4ccccc4C2C3(C)C(=O)c2ccccc2)cc1` (centres unmarked) [Compound 68], the “% Inhibition (reduction in protease activity)” value in the experiment with WNV protease is reported as 61%. The same measure, in the same setting: under `O=C(CCc1ccccc1)Nc1nnc(SCc2ccc(F)cc2)s1` [Compound 69] stands 61%; under `COc1ccc(Cl)cc1NC(=O)c1cc(-c2ccco2)on1` [Compound 70], 60%; under `O=C(CCC(=O)c1ccc(Cl)cc1)Nc1c(F)cccc1F` [Compound 71], 59%. Turning to `Nc1sc2c(c1C(=O)NCCc1ccccc1)CCC2` [Compound 72], the “% Inhibition (reduction in protease activity)” value in the experiment with WNV protease stood at 59%. Turning to `Cc1ccc(NC(=O)c2cnn(-c3ccccc3)c2NC(=O)c2ccco2)cc1` [Compound 73], the “% Inhibition (reduction in protease activity)” value in the experiment with WNV protease came out at 58%. For the compound `O=C(/C=C/c1ccccc1)Nc1c2c(nn1-c1ccccc1)CSC2` [Compound 74], the “% Inhibition (reduction in protease activity)” value with WNV protease was determined as 57%. Still for that read-out and setting: under `O=C(c1cc(Br)cc2c1OCC2)N1CCOCC1` [Compound 75] stands 57%; under `CCC(C(=O)Nc1c2c(nn1-c1ccc(F)cc1)CSC2)c1ccccc1` (centres unmarked) [Compound 76], 57%. As to `Cc1ccc(CNC(=O)Cc2ccc(-n3cccc3)cc2)cc1` [Compound 77], the “% Inhibition (reduction in protease activity)” value in the experiment with WNV protease amounted to 56%. The same measure, in the same setting: under `COc1ccc(NC(=O)C(NC(=O)Cc2cccs2)c2ccccc2)cc1` (centres unmarked) [Compound 78] stands 56%; under `CC1=Nc2ccccc2N=C(NC(=O)CSc2nnnn2-c2ccccc2)C1c1ccccc1` (centres unmarked) [Compound 79], 56%. Take `Cc1ccc(/N=C2\NC(=O)C(CC(=O)Nc3ccc(OC(F)(F)F)cc3)S2)cc1` (centres unmarked) [Compound 81]: the “% Inhibition (reduction in protease activity)” value with WNV protease was 55%. Turning to `O=C(Nc1ccc(Cl)cc1)Oc1ccccc1N1CCSCC1` [Compound 82], the “% Inhibition (reduction in protease activity)” value in the experiment on WNV protease was 55%. Regarding `CCOC(=O)c1c(CC(C)C)csc1NC(=O)Cc1ccccc1` [Compound 83], in the experiment with WNV protease, the “% Inhibition (reduction in protease activity)” value is on record as 54%. Regarding `Cc1nnc(NC(=O)CSc2cn(Cc3ccccc3)c3ccccc23)s1` [Compound 84], the “% Inhibition (reduction in protease activity)” value with WNV protease came to 54%. On the same count and under the same terms, under `Cc1ccc(NC(=O)c2cc(-c3ccc(O)cc3)on2)cc1` [Compound 85] stands 54%; under `CCn1c2ccccc2c2nnc(SCC(=O)Nc3ccc(S(N)(=O)=O)cc3)nc21` [Compound 86], 54%; under `CCc1ccc(-c2cc(C(=O)Nc3ccc(S(=O)(=O)NC(C)=O)cc3)c3ccccc3n2)cc1` [Compound 87], 54%. As to `Cc1cc(NC(=O)CSc2ccccn2)no1` [Compound 88], in the experiment with WNV protease, the “% Inhibition (reduction in protease activity)” value is listed as 54%. With `O=C(NCc1csc2ccccc12)c1cc(F)cc2c1OCOC2` [Compound 89], the “% Inhibition (reduction in protease activity)” value with WNV protease came to 53%. Regarding `CC(C)c1ccc(NC(=O)CSC(=O)c2ccccc2)cc1` [Compound 92], in the experiment on WNV protease, the “% Inhibition (reduction in protease activity)” value is given as 52%. On to `COc1cccc(CNC(=O)c2[nH]c(C)c(C(=O)NC3CCCCC3)c2C)c1` [Compound 93], for which the “% Inhibition (reduction in protease activity)” value in the experiment on WNV protease was 52%.

Consider `O=C(CSc1oc(-c2cccs2)nc1S(=O)(=O)c1ccccc1)NC1CCCCC1` [Compound 95], for which the “% Inhibition (reduction in protease activity)” value in the experiment on WNV protease was determined as 52%. Regarding `CCCCC1CCC(C(=O)Nc2c3c(nn2-c2ccccc2C)C[S+]([O-])C3)CC1` (centres unmarked) [Compound 96], in the experiment on WNV protease, the “% Inhibition (reduction in protease activity)” value is on record as 51%. Turning to `N#CCC(=O)Nc1ccc(Oc2ccccc2)cc1` [Compound 97], in the experiment with WNV protease, the “% Inhibition (reduction in protease activity)” value is reported as 51%. Same read-out and setting: under `Cc1ccc(-c2noc(CCC(=O)NCC3CCN(Cc4cccc(C)c4)CC3)n2)cc1` [Compound 98] stands 51%; under `O=C(Nc1nc(SCc2ccc(F)cc2)ns1)c1cccs1` [Compound 99], 50%; under `CCc1ccccc1NC(=O)Cn1cccc1C1=NC(c2ccccc2)CO1` (centres unmarked) [Compound 100], 50%. Turning to `Cc1ccc(-n2nc3c(c2NC(=O)CCC2CCCC2)CSC3)cc1` [Compound 101], the “% Inhibition (reduction in protease activity)” value in the experiment on WNV protease is on record as 50%.
